System: PBMCs from healthy volunteers
Assay: HG-U133A baseline gene expression in PBMCs of healthy volunteers (HV), cPLA2 inhibitor in the absence of allergen (no AG)
Type: cell-based, human
From the text: PBMCs were stimulated in vitro with a cocktail containing 4 different allergens from house dust mite, ragweed and cat. Recombinant allergens, Der p1, Der f2, Fel d1 (Indoor Biotech, Charlottesville, Va.) and natural ragweed allergen (Allergy Lab, Seattle, Wash.) were selected and screened for endotoxin contamination (LAL Endotoxin Test, Catalog #HIT302, sensitivity, 0.0001 Eu/ml, Cell Sciences, Canton, Mass.). The sensitivity of the subjects was unknown but the allergens were chosen based on the estimate that 80% of allergic individuals are believed to react to one or more of these allergens. Culture medium contained RPMI-1640 (Sigma) with 10% heat inactivated FCS (Sigma St. Louis, Mo.) and 100 unit/mL Penicillin and […] Streptomycin and 0.292 mg/mL Glutamine (GIBCO RL Invitrogen, Carlsbad, Calif.). The final allergen cocktail concentrations in culture medium were: Der p1 and Der f2 (dust mite), 1 mg/ml; Fel d1 (cat), 1.25 mg/ml; ragweed, 125 mg/ml. The total level of endotoxin contamination in culture medium was 0.057 Eu/ml. The cPLA2 inhibitor 4-{3-[1-benzhydryl-5-chloro-2-(2-{[(2,6-dimethylbenzyl)sulfonyl]amino}ethyl)-1H-indol-3-yl]propyl}benzoic acid was used at a concentration of 0.3 μM/ml. Zileuton, a 5-lipoxygenase inhibitor, was added at a concentration of 5 μM. The inhibitory activity of both the cPLA2 inhibitor and Zileuton samples were verified in a human whole blood assay. After 6 days in culture approximately 200 μL of supernatant was removed using an 8-channel pipettor without disturbing the cell pellet and placed into a collection plate for cytokine ELISA assays. To the remaining cell pellet 100 μL of RLT lysis buffer containing 1% beta-mercaptoethanol was added and snap frozen for RNA purification.
RNA was purified using QIA shredders and Rneasy mini kits (Qiagen, Valencia, Calif.). PBMC pellets frozen in RLT lysis buffer containing 1% β-mercaptoethanol were thawed and processed for total RNA isolation using the QIA shredder and RNeasy mini kit. A phenol:chloroform extraction was then performed, and the RNA was repurified using the RNeasy mini kit reagents. Eluted RNA was quantified using a Spectramax96 well plate UV reader (Molecular Devices, Sunnyvale, Calif., USA) monitoring A260/280 OD values. The quality of each RNA sample was assessed by capillary electrophoresis alongside an RNA molecular weight ladder on the Agilent 2100 bioanalyzer (Agilent Technologies, Palo Alto, Calif., USA). RNA samples were assigned quality values of intact (distinct 18S and 28S bands); partially degraded (discernible 18S and 28S bands with presence of low molecular weight bands) or completely degraded (no discernible 18S and 28S bands).
Labeled targets for oligonucleotide arrays were prepared using a modification of the procedure described by Lockhart et al. (Lockhart (1996) Nat. Biotechnol. 14:1675-80). Labeled targets were hybridized to the HG-U133A Affymetrix GeneChip Array as described in the Affymetrix technical manual. Eleven biotinylated control transcripts ranging in abundance from 3 parts per million (ppm) to 100 ppm were spiked into each sample to function as a standard curve (Hill (2001) Genome Biol. 2:RESEARCH0055). GeneChip MAS 5.0 software was used to evaluate the hybridization intensity, compute the signal value for each probe set and make an absent/present call.
GeneChips were required to pass the pre-set quality control criteria that the RNA quality metric required a 5′:3′ ratio. Two asthma subjects were excluded from the study due to failure to meet the RNA quality metric and 2 GeneChips from the group treated with cPLA2a inhibitor were excluded for the same reason. The signal value for each probe set was converted into a frequency value representative of the number of transcripts present in 10^6 transcripts by reference to the standard curve (Hill (2001) Genome Biol. 2:RESEARCH0055). […]

SMILES: Cc1cccc(C)c1CS(=O)(=O)NCCc1c(CCCc2ccc(C(=O)O)cc2)c2cc(Cl)ccc2n1C(c1ccccc1)c1ccccc1 [cPLA2 inhibitor, 4-{3-[1-benzhydryl-5-chloro-2-(2-{[(2,6-dimethylbenzyl)sulfonyl]amino}ethyl)-1H-indol-3-yl]propyl}benzoic acid]
- Fold Change cPLA2 inhibitor vs. no AG HV (probeset 208723_at, gene USP11): 1.191 fold
- Fold Change cPLA2 inhibitor vs. no AG HV (probeset 208735_s_at, gene CTDSP2): 1.214 fold
- Fold Change cPLA2 inhibitor vs. no AG HV (probeset 208881_x_at, gene IDI1): 1.288 fold
- Fold Change cPLA2 inhibitor vs. no AG HV (probeset 208962_s_at, gene UNK_BE540552): 1.667 fold
- Fold Change cPLA2 inhibitor vs. no AG HV (probeset 208963_x_at, gene FADS1): 1.668 fold
- Fold Change cPLA2 inhibitor vs. no AG HV (probeset 208992_s_at, gene STAT3): 1.161 fold
- Fold Change cPLA2 inhibitor vs. no AG HV (probeset 209417_s_at, gene IFI35): 1.367 fold
- Fold Change cPLA2 inhibitor vs. no AG HV (probeset 209949_at, gene NCF2): 1.229 fold
- Fold Change cPLA2 inhibitor vs. no AG HV (probeset 209969_s_at, gene STAT1): 1.315 fold
- Fold Change cPLA2 inhibitor vs. no AG HV (probeset 210029_at, gene INDO): 2.207 fold
- Fold Change cPLA2 inhibitor vs. no AG HV (probeset 210146_x_at, gene LILRB2): 1.473 fold
- Fold Change cPLA2 inhibitor vs. no AG HV (probeset 210176_at, gene TLR1): 1.302 fold
- Fold Change cPLA2 inhibitor vs. no AG HV (probeset 210495_x_at, gene FN1): −16.2745 fold
- Fold Change cPLA2 inhibitor vs. no AG HV (probeset 210524_x_at, gene UNK_AF078844): 1.984 fold
- Fold Change cPLA2 inhibitor vs. no AG HV (probeset 210754_s_at, gene LYN): 1.482 fold
- Fold Change cPLA2 inhibitor vs. no AG HV (probeset 210784_x_at, gene LILRB3): 1.348 fold
- Fold Change cPLA2 inhibitor vs. no AG HV (probeset 210962_s_at, gene AKAP9): −1.163 fold
- Fold Change cPLA2 inhibitor vs. no AG HV (probeset 211133_x_at, gene LILRB3): 1.349 fold
- Fold Change cPLA2 inhibitor vs. no AG HV (probeset 211135_x_at, gene LILRB3): 1.416 fold
- Fold Change cPLA2 inhibitor vs. no AG HV (probeset 211456_x_at, gene UNK_AF333388): 2.494 fold
- Fold Change cPLA2 inhibitor vs. no AG HV (probeset 211661_x_at, gene PTAFR): 1.264 fold
- Fold Change cPLA2 inhibitor vs. no AG HV (probeset 211719_x_at, gene FN1): −18.8559 fold
- Fold Change cPLA2 inhibitor vs. no AG HV (probeset 212066_s_at, gene USP34): −1.173 fold
- Fold Change cPLA2 inhibitor vs. no AG HV (probeset 212185_x_at, gene MT2A): 2.359 fold
- Fold Change cPLA2 inhibitor vs. no AG HV (probeset 212274_at, gene UNK_AV705559): 1.2259 fold
- Fold Change cPLA2 inhibitor vs. no AG HV (probeset 212318_at, gene TNPO3): 1.195 fold
- Fold Change cPLA2 inhibitor vs. no AG HV (probeset 212464_s_at, gene FN1): −16.6219 fold
- Fold Change cPLA2 inhibitor vs. no AG HV (probeset 212859_x_at, gene MT2A): 2.114 fold
- Fold Change cPLA2 inhibitor vs. no AG HV (probeset 212907_at, gene SLC30A1): 1.527 fold
- Fold Change cPLA2 inhibitor vs. no AG HV (probeset 213571_s_at, gene EIF4EL3): 1.18 fold
- Fold Change cPLA2 inhibitor vs. no AG HV (probeset 213629_x_at, gene MT1F): 1.953 fold
- Fold Change cPLA2 inhibitor vs. no AG HV (probeset 213716_s_at, gene SECTM1): 1.603 fold
- Fold Change cPLA2 inhibitor vs. no AG HV (probeset 214038_at, gene UNK_AI984980): 2.289 fold
- Fold Change cPLA2 inhibitor vs. no AG HV (probeset 214179_s_at, gene NFE2L1): 1.302 fold
- Fold Change cPLA2 inhibitor vs. no AG HV (probeset 214730_s_at, gene GLG1): 1.22 fold
- Fold Change cPLA2 inhibitor vs. no AG HV (probeset 215051_x_at, gene AIF1): 1.464 fold
- Fold Change cPLA2 inhibitor vs. no AG HV (probeset 215223_s_at, gene SOD2): 1.584 fold
- Fold Change cPLA2 inhibitor vs. no AG HV (probeset 216336_x_at, gene UNK_AL031602): 1.748 fold
- Fold Change cPLA2 inhibitor vs. no AG HV (probeset 216442_x_at, gene FN1): −15.6848 fold
- Fold Change cPLA2 inhibitor vs. no AG HV (probeset 216841_s_at, gene SOD2): 1.463 fold
- Fold Change cPLA2 inhibitor vs. no AG HV (probeset 217165_x_at, gene MT1F): 2.496 fold
- Fold Change cPLA2 inhibitor vs. no AG HV (probeset 217965_s_at, gene HCNGP): 1.185 fold
- Fold Change cPLA2 inhibitor vs. no AG HV (probeset 218154_at, gene FLJ12150): 1.267 fold
- Fold Change cPLA2 inhibitor vs. no AG HV (probeset 218472_s_at, gene PELO): 1.163 fold
- Fold Change cPLA2 inhibitor vs. no AG HV (probeset 219159_s_at, gene SLAMF7): 1.736 fold
- Fold Change cPLA2 inhibitor vs. no AG HV (probeset 219519_s_at, gene SN): 2.441 fold
- Fold Change cPLA2 inhibitor vs. no AG HV (probeset 219788_at, gene PILRA): 1.371 fold
- Fold Change cPLA2 inhibitor vs. no AG HV (probeset 221165_s_at, gene IL22): 1.835 fold
- Fold Change cPLA2 inhibitor vs. no AG HV (probeset 221558_s_at, gene LEF1): −1.137 fold
- Fold Change cPLA2 inhibitor vs. no AG HV (probeset 221581_s_at, gene WBSCR5): 1.343 fold
- Fold Change cPLA2 inhibitor vs. no AG HV (probeset 222218_s_at, gene PILRA): 1.292 fold
